Results on 24 molecules are retold here after patent US11072626B2, “Small molecule inhibitors of Galectin-3” (BRISTOL-MYERS SQUIBB COMPANY, priority 2017, dated 2021).

Chain of His-tagged recombinant human Gal-3 (hGal-3) (P17931 whole entry): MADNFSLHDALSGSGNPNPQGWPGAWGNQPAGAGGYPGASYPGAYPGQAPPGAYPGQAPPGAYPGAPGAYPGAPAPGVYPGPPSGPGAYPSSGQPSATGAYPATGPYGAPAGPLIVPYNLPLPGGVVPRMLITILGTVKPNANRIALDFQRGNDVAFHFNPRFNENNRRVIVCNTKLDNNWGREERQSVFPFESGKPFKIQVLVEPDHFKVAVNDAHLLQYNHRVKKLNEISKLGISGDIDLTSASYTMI

One assay deals with His-tagged recombinant human Gal-3 (hGal-3) (Homo sapiens (Human), UniProt P17931). Nature of the assay: Gal-3 HTRF assay (hGal-3 / B-ASF). The conditions noted are these: 15 nM hGal-3, 15 nM B-ASF, table after Example 20, read-out: hGal3 IC50. It is filed as binding. How it is done:
ASSAY BUFFER Composition: 25 mM HEPES, 100 mM NaCl, 0.005% Tween 20, 0.05% BSA prepared in sterile water (all reagents from Sigma)
Positive Control: 100% DMSO (1 μl)+His-tagged hGal-3 (20 μL)+B-ASF (20 μl)+Anti-His Terbium Antibody (5 μl)+Strep d2 Antibody (5 μl).
Negative Control: 100% DMSO (1 μl)+His-tagged hGal-3 (20μL)+Anti His Terbium Antibody (5 μl)+Strep d2 Aantibody (5 μl).
PROTOCOL: The Gal-3 assays were performed in 384 white Opti plates in three replicates at room temperature with gentle shaking at 250-300 rpm From the original stocks, […] working stock concentrations of His-tagged recombinant human Gal-3 (hGal-3) and that of B-ASF were prepared. From the working stock, 20 μl of hGal-3 (15 nM) and 20 μl B-ASF (15 nM) were added to the plates. In Negative Control, only hGal-3 was added. A concentration range of 50× working stocks were prepared for the compounds in 100% DMSO. Aliquots of 1 uL of the compounds were added to the wells and pre-incubated with 20 μl hGal-3 per well for 30 minutes Then 20 μl B-ASF were added and incubated for another 1 hour. To detect the signal, 5 μ(final conc. of 1.0 nM) terbium labelled Anti-His antibody was added and incubated for 30 min followed by adding 5 μ(final conc. of 20 nM) Streptavidin d2 and incubation for another 1 hour. The assay signal was detected using HTRF screen protocol (Excitation wavelength=340 nm, emission wavelength=615 nm/665 nm) on Envision 2104 Multilabel Reader. Data analysed using Toolset and Curve Master. Results are reported in the experimental section (IC50 in μM).
A general note: Time-resolved FRET reads energy transfer from a long-lived donor to a nearby acceptor.
Broadly, the IC50 is the concentration that inhibits the measured activity by half. On to `O=C(CO[C@@H]1[C@@H](n2cc(-c3cc(F)c(F)c(F)c3)nn2)[C@@H](O)[C@@H](CO)O[C@@H]1Sc1ccc(Cl)c(Cl)c1)N1CCCCC1` [Example 21], for which the half-inhibitory concentration (IC50) was 225 nM.

As to `O=C(CO[C@@H]1[C@@H](n2cc(-c3cc(F)c(F)c(F)c3)nn2)[C@@H](O)[C@@H](CO)O[C@@H]1Sc1ccc(Cl)c(Cl)c1)N1CCS(=O)(=O)CC1` [Example 22, 2-(((2R,3R,4S,5R,6R)-2-((3,4-dichlorophenyl)thio)-5-hydroxy-6-(hydroxymethyl)-4-(4-(3,4,5-trifluorophenyl)-1H-1,2,3-triazol-1-yl)tetrahydro-2H-pyran-3-yl)oxy)-1-(1,1-dioxidothiomorpholino)ethan-1-one], the IC50 was found to be 43 nM.

Turning to `O=C(CO[C@@H]1[C@@H](n2cc(-c3cc(F)c(F)c(F)c3)nn2)[C@@H](O)[C@@H](CO)O[C@@H]1Sc1ccc(Cl)c(Cl)c1)N1CCC[C@@H](O)C1` [Example 23], the IC50 came to 60 nM.

On to `O=C(CO[C@@H]1[C@@H](n2cc(-c3cc(F)c(F)c(F)c3)nn2)[C@@H](O)[C@@H](CO)O[C@@H]1Sc1ccc(Cl)c(Cl)c1)N1CCCC(F)(F)C1` [Example 24], for which the IC50 worked out at 150 nM.

Turning to `O=C(CO[C@@H]1[C@@H](n2cc(-c3cc(F)c(F)c(F)c3)nn2)[C@@H](O)[C@@H](CO)O[C@@H]1Sc1ccc(Cl)c(Cl)c1)N1CCOCC1` [Example 25, 2-(((2R,3R,4S,5R,6R)-2-((3,4-dichlorophenyl)thio)-5-hydroxy-6-(hydroxymethyl)-4-(4-(3,4,5-trifluorophenyl)-1H-1,2,3-triazol-1-yl)tetrahydro-2H-pyran-3-yl)oxy)-1-morpholinoethan-1-one], the IC50 stood at 76 nM.

Turning to `O=C1CN(C(=O)CO[C@@H]2[C@@H](n3cc(-c4cc(F)c(F)c(F)c4)nn3)[C@@H](O)[C@@H](CO)O[C@@H]2Sc2ccc(Cl)c(Cl)c2)CCN1` [Example 26], the IC50 was 86 nM.

`O=C(CO[C@@H]1[C@@H](n2cc(-c3cc(F)c(F)c(F)c3)nn2)[C@@H](O)[C@@H](CO)O[C@@H]1Sc1ccc(Cl)c(Cl)c1)N1CC[C@@H](O)C1` [Example 27]: the IC50 is 70 nM.

Consider `O=C(CO[C@@H]1[C@@H](n2cc(-c3cc(F)c(F)c(F)c3)nn2)[C@@H](O)[C@@H](CO)O[C@@H]1Sc1ccc(Cl)c(Cl)c1)N1CC[C@H](O)C1` [Example 28], for which the IC50 worked out at 48 nM.

Regarding `O=C(CO[C@@H]1[C@@H](n2cc(-c3cc(F)c(F)c(F)c3)nn2)[C@@H](O)[C@@H](CO)O[C@@H]1Sc1ccc(Cl)c(Cl)c1)N1CCC[C@H]1CO` [Example 29], the IC50 was found to be 72 nM.

With `CC(=O)NC1CN(C(=O)CO[C@@H]2[C@@H](n3cc(-c4cc(F)c(F)c(F)c4)nn3)[C@@H](O)[C@@H](CO)O[C@@H]2Sc2ccc(Cl)c(Cl)c2)C1` [Example 30], the half-maximal inhibitory concentration (IC50) was determined as 800 nM.

`O=C(CO[C@@H]1[C@@H](n2cc(-c3cc(F)c(F)c(F)c3)nn2)[C@@H](O)[C@@H](CO)O[C@@H]1Sc1ccc(Cl)c(Cl)c1)N1CC(O)C1` [Example 31]: the half-maximal inhibitory concentration (IC50) worked out at 90 nM.

For `COCCN(C)C(=O)CO[C@@H]1[C@@H](n2cc(-c3cc(F)c(F)c(F)c3)nn2)[C@@H](O)[C@@H](CO)O[C@@H]1Sc1ccc(Cl)c(Cl)c1` [Example 32], the IC50 was determined as 700 nM.

With `O=C(CO[C@@H]1[C@@H](n2cc(-c3cc(F)c(F)c(F)c3)nn2)[C@@H](O)[C@@H](CO)O[C@@H]1Sc1ccc(Cl)c(Cl)c1)N1CCC[C@H](O)C1` [Example 33, 2-(((2R,3R,4S,5R,6R)-2-((3,4-dichlorophenyl)thio)-5-hydroxy-6-(hydroxymethyl)-4-(4-(3,4,5-trifluorophenyl)-1H-1,2,3-triazol-1-yl)tetrahydro-2H-pyran-3-yl)oxy)-1-((S)-3-hydroxypiperidin-1-yl)ethan-1-one], the IC50 stood at 60 nM.

As to `O=C(CO[C@@H]1[C@@H](n2cc(-c3cc(F)c(F)c(F)c3)nn2)[C@@H](O)[C@@H](CO)O[C@@H]1Sc1ccc(Cl)c(Cl)c1)NC1CC2(CC(O)C2)C1` (stereo partly drawn) [Example 34], the IC50 is 660 nM.

The same assay, now with this note: 15 nM hGal-3, 15 nM B-ASF, three replicates, room temperature, read-out: hGal3 IC50.
For `O=C(CO[C@@H]1[C@@H](n2cc(-c3cc(F)c(F)c(F)c3)nn2)[C@@H](O)[C@@H](CO)O[C@@H]1Sc1ccc(Cl)c(Cl)c1)N1CCC(O)CC1` [Example 20, 2-(((2R,3R,4S,5R,6R)-2-((3,4-dichlorophenyl)thio)-5-hydroxy-6-(hydroxymethyl)-4-(4-(3,4,5-trifluorophenyl)-1H-1,2,3-triazol-1-yl)tetrahydro-2H-pyran-3-yl)oxy)-1-(4-hydroxypiperidin-1-yl)ethan-1-one], the IC50 came to 40 nM.

As to `O=C(CO[C@@H]1[C@@H](n2cc(-c3cc(F)c(F)c(F)c3)nn2)[C@@H](O)[C@@H](CO)O[C@@H]1[S@+]([O-])c1ccc(Cl)c(Cl)c1)N1CCS(=O)(=O)CC1` [Example 35, 2-(((2R,3R,4S,5R,6R)-2-((R)-(3,4-dichlorophenyl)sulfinyl)-5-hydroxy-6-(hydroxymethyl)-4-(4-(3,4,5-trifluorophenyl)-1H-1,2,3-triazol-1-yl)tetrahydro-2H-pyran-3-yl)oxy)-1-(1,1-dioxidothiomorpholino)ethan-1-one], the IC50 stood at 50 nM.

Regarding `O=C(CO[C@@H]1[C@@H](n2cc(-c3cc(F)c(F)c(F)c3)nn2)[C@@H](O)[C@@H](CO)O[C@@H]1[S@@+]([O-])c1ccc(Cl)c(Cl)c1)N1CCC[C@H](O)C1` [Example 36, 2-(((2R,3R,4S,5R,6R)-2-((S)-(3,4-dichlorophenyl)sulfinyl)-5-hydroxy-6-(hydroxymethyl)-4-(4-(3,4,5-trifluorophenyl)-1H-1,2,3-triazol-1-yl)tetrahydro-2H-pyran-3-yl)oxy)-1-((S)-3-hydroxypiperidin-1-yl)ethan-1-one], the IC50 turned out to be 70 nM.

With `O=C(CO[C@@H]1[C@@H](n2cc(-c3cc(F)c(F)c(F)c3)nn2)[C@@H](O)[C@@H](CO)O[C@@H]1[S@@+]([O-])c1ccc(Cl)c(Cl)c1)N1CCOCC1` [Example 37, 2-(((2R,3R,4S,5R,6R)-2-((S)-(3,4-dichlorophenyl)sulfinyl)-5-hydroxy-6-(hydroxymethyl)-4-(4-(3,4,5-trifluorophenyl)-1H-1,2,3-triazol-1-yl)tetrahydro-2H-pyran-3-yl)oxy)-1-morpholinoethan-1-one], the half-inhibitory concentration (IC50) is 80 nM.

As for `O=C(O)/C=C\O[C@@H]1[C@@H](n2cc(-c3cc(F)c(F)c(F)c3)nn2)[C@@H](O)[C@@H](CO)O[C@@H]1Sc1ccc(Cl)c(Cl)c1` [Example 40 (cis-isomer), (Z)-3-(((2R,3R,4S,5R,6R)-2-((3,4-dichlorophenyl)thio)-5-hydroxy-6-(hydroxymethyl)-4-(4-(3,4,5-trifluorophenyl)-1H-1,2,3-triazol-1-yl)tetrahydro-2H-pyran-3-yl)oxy)acrylic acid], the IC50 turned out to be 680 nM.

As to `O=C(O)/C=C/O[C@@H]1[C@@H](n2cc(-c3cc(F)c(F)c(F)c3)nn2)[C@@H](O)[C@@H](CO)O[C@@H]1Sc1ccc(Cl)c(Cl)c1` [Example 40 (trans-isomer), (E)-3-(((2R,3R,4S,5R,6R)-2-((3,4-dichlorophenyl)thio)-5-hydroxy-6-(hydroxymethyl)-4-(4-(3,4,5-trifluorophenyl)-1H-1,2,3-triazol-1-yl)tetrahydro-2H-pyran-3-yl)oxy)acrylic acid], the half-inhibitory concentration (IC50) is 60 nM.

In the case of `O=C(O)/C=C/O[C@@H]1[C@@H](n2cc(C3CC3)nn2)[C@@H](O)[C@@H](CO)O[C@@H]1Sc1ccc(Cl)c(Cl)c1` [Example 41, (E)-3-(((2R,3R,4S,5R,6R)-4-(4-cyclopropyl-1H-1,2,3-triazol-1-yl)-2-((3,4-dichlorophenyl)thio)-5-hydroxy-6-(hydroxymethyl)tetrahydro-2H-pyran-3-yl)oxy)acrylic acid], the IC50 was determined as 2740 nM.

With `CO[C@@H]1[C@@H](n2cc(C(=O)O)nn2)[C@@H](O)[C@@H](CO)O[C@@H]1Sc1ccc(Cl)c(Cl)c1` [Example 42, 1-((2R,3R,4S,5R,6R)-2-((3,4-dichlorophenyl)thio)-5-hydroxy-6-(hydroxymethyl)-3-methoxytetrahydro-2H-pyran-4-yl)-1H-1,2,3-triazole-4-carboxylic acid], the 50% inhibitory concentration (IC50) is 5000 nM.

For the molecule `CO[C@@H]1[C@@H](n2cc(C(=O)NC3CC3)nn2)[C@@H](O)[C@@H](CO)O[C@@H]1Sc1ccc(Cl)c(Cl)c1` [Example 43, N-cyclopropyl-1-((2R,3R,4S,5R,6R)-2-((3,4-dichlorophenyl)thio)-5-hydroxy-6-(hydroxymethyl)-3-methoxytetrahydro-2H-pyran-4-yl)-1H-1,2,3-triazole-4-carboxamide], the IC50 is 2900 nM.

Consider `CO[C@@H]1[C@@H](n2cc(C(=O)N(C)C3CC3)nn2)[C@@H](O)[C@@H](CO)O[C@@H]1Sc1ccc(Cl)c(Cl)c1` [Example 44, N-cyclopropyl-1-((2R,3R,4S,5R,6R)-2-((3,4-dichlorophenyl)thio)-5-hydroxy-6-(hydroxymethyl)-3-methoxytetrahydro-2H-pyran-4-yl)-N-methyl-1H-1,2,3-triazole-4-carboxamide], for which the half-inhibitory concentration (IC50) was determined as 5000 nM.
